The numbers were not newly measured in US20230159622A1, “COLLAGEN MIMICS” (Wisconsin Alumni Research Foundation, priority 2006, published 2023), which cites them from elsewhere.

Marks after values point to notes of the source that are not given here.

The conditions of the series: based on the extrapolation of data from solutions containing trimethylamine N-oxide; literature reference.

With (Pro-Pro-Gly)7, the “Tm (±1° C.) of triple helix, based on extrapolation” value is given as −6^a ° C.
